For 14 compounds, TGI results are on record in PubChem BioAssay (NCI).

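Interpolation was linear, between the two tested concentrations surrounding the appropriate level; five concentrations were tested over 48 hours in 96-well plates. Definition used: TGI = concentration required for complete inhibition of growth.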

What all share (experiment): NCI tumour cell line growth inhibition, 48 h
For assay [1], the system named is 786-0 renal.
Assay [2] relates to COLO 205 colon.
Assay [3] concerns DU-145 prostate.
Assay [4] deals with HCC-2998 colon.
Assay [5] deals with HCT-116 colon.
The test system of assay [6] is HOP-62 NSCLC.
The subject of assay [7] is K-562 leukemia.
In assay [8] the test system is M14 melanoma.
For assay [9], the system named is MCF7 breast.
The subject of assay [10] is MDA-MB-231 breast.
Assay [11] deals with MDA-MB-435.
Assay [12] deals with NCI-H460 lung.
Assay [13] deals with OVCAR-5 ovarian.
Assay [14] deals with PC-3 prostate.
The subject of assay [15] is RPMI-8226 leukemia.
Assay [16] concerns RXF 393 renal.
Assay [17] has as its system SN12C renal.
The subject of assay [18] is SNB-19 CNS.
Assay [19] deals with U251 CNS.

Take `CCc1nc(N)nc(N)c1-c1ccc(N2CCOCC2)c(N=[N+]=[N-])c1`: the TGI in assay [1], in [2], in assay [3], in assay [4], in assay [5] and in assay [6] was over 100 µM each time. Also, the TGI was over 90.6 µM in assay [7]; over 100 µM in [8]; over 100 µM in assay [9]; over 100 µM in assay [10]; over 100 µM in [11]; over 100 µM in assay [12]. In addition, the TGI in assay [13] was over 100 µM; in assay [14], over 100 µM; in [15] it was over 100 µM; in assay [16] it was over 100 µM; in [17], over 100 µM; in [18] it was over 78.4 µM. In addition, the TGI in [19] is over 100 µM.

In the case of `COC(=O)c1ccc(CCC2=CC(=O)C=CC2=O)cc1`, the TGI amounted to 5.58 µM in assay [1]; 26.6 µM in assay [2]; 33.8 µM in assay [3]; 30.8 µM in [4]; 25.9 µM in assay [5]; 39.3 µM in [6]. Besides, the TGI in [7] is 8.9 µM; in assay [8], 32.4 µM; in assay [9] it was 30 µM; in [10] it was over 68.4 µM; in assay [11] it was 28 µM; in assay [12], 35.9 µM. Also, the TGI was 33.8 µM in [13]; 27.7 µM in [14]; 5.71 µM in assay [15]; 25.3 µM in assay [16]; over 55.9 µM in [17]; over 56.2 µM in assay [18]. Also, the TGI in assay [19] was 24.8 µM.

As to `NC(CCC(=O)O)C(=O)NC(Cc1ccc(N(CCCl)CCCl)cc1)C(=O)O` (stereo unspecified), the TGI in [1], in [2], in [3], in [4], in assay [5] and in assay [6] was over 100 µM in each case. For the same compound, the TGI in [7], in assay [8], in [9], in [10], in assay [11] and in assay [12] was over 100 µM each time. Further, the TGI in assay [13], in assay [14], in [15], in assay [16], in assay [17] and in assay [18] was over 100 µM in each case. The compound also registered a TGI in assay [19] of over 100 µM.

Take `CC[C@@H]1CC[C@@H]2[C@H](CC[C@]3(C)[C@@H](O[N+](=O)[O-])CC[C@@H]23)[C@H]1C(C)=O`: the TGI is over 100 µM in assay [1]; 24.4 µM in assay [2]; over 100 µM in [3]; over 100 µM in [4]; over 100 µM in assay [5]; over 100 µM in [6]. The TGI was over 100 µM in [7]; over 100 µM in assay [8]; 83.1 µM in assay [9]; 75.1 µM in [10]; over 100 µM in assay [11]; 76 µM in assay [12]. In addition, the TGI in assay [13] is over 100 µM; in assay [14], 74.9 µM; in assay [15], 49.9 µM; in assay [16], over 100 µM; in assay [17], over 100 µM; in assay [18], over 100 µM. In assay [19], this compound yielded a TGI of over 100 µM.

With `Cc1cccc(C)c1NC(=O)C(=O)CC(=O)c1sc(Nc2c(C)cccc2C)nc1C`, the TGI in [1], in assay [2], in assay [3], in assay [4], in assay [5] and in assay [6] was over 100 µM each time. The TGI in assay [7], in assay [8], in assay [9], in [10], in assay [11] and in [12] was over 100 µM in each case. Further, the TGI in assay [13], in [14], in assay [15], in assay [16], in assay [17] and in assay [18] was over 100 µM in each case. The same compound gave a TGI in [19] of over 100 µM.

For `O=c1oc2ccccc2c(-c2ccc(O)cc2)c1Oc1ccccc1`, the TGI was 66.4 µM in assay [1]; over 69.6 µM in assay [2]; over 63.9 µM in [3]; 19.8 µM in assay [4]; over 87.9 µM in assay [5]; over 100 µM in assay [6]. In addition, the TGI in [7] is over 100 µM; in assay [8], 32.1 µM; in assay [9] it was over 100 µM; in assay [10], over 100 µM; in assay [11] it was over 100 µM; in assay [12], 20.5 µM. In addition, the TGI in assay [13] was 70 µM; in assay [14], over 96.1 µM; in assay [15], over 100 µM; in [16], over 74 µM; in [17] it was 55.3 µM; in assay [18] it was 50.6 µM. This compound also showed a TGI in assay [19] of 24.9 µM.

Consider `O=C(Nc1ccc(Cl)cc1Cl)C1C(=O)OC2(CCCCC2)OC1=O`, for which the TGI is 30.3 µM in [1]; 26.7 µM in [2]; 28.7 µM in assay [3]; 29.3 µM in [4]; 23.3 µM in [5]; 17.3 µM in [6]. The TGI in assay [7] was determined as 43.1 µM; in assay [8], 30.1 µM; in [9] it was 29.6 µM; in assay [10], 33 µM; in assay [11], 56 µM; in [12] it was 27.4 µM. Also, the TGI was 28 µM in [13]; 17.4 µM in [14]; 35.7 µM in assay [15]; 22 µM in [16]; 49.4 µM in assay [17]; over 100 µM in assay [18]. The TGI in [19] turned out to be 54.1 µM.

For `COC(=O)/C=C1\C(CO[Si](C)(C)C(C)(C)C)OC(n2ccc(=O)[nH]c2=O)C1O` (stereo unspecified), the TGI in assay [1] was 16.6 µM; in assay [2] it was 10.3 µM; in [3], 32.7 µM; in [4], 26.2 µM; in assay [5], 16.9 µM; in assay [6], over 31.1 µM. Besides, the TGI in assay [7] is over 95.4 µM; in assay [8], 49.2 µM; in [9], 31.4 µM; in [10] it was over 100 µM; in assay [11], over 43 µM; in assay [12], 37.8 µM. Moreover, the TGI was 50.9 µM in [13]; over 27.9 µM in assay [14]; 29.4 µM in [15]; 32.5 µM in assay [16]; over 54.4 µM in assay [17]; over 100 µM in assay [18]. The same compound showed a TGI in [19] of over 87.3 µM.

Consider `CC(C)=CCC[C@@H](C)C1=C(N)C(O)=C(C)C(=O)C1=O`, for which the TGI is over 75 µM in [1]; over 67.9 µM in [2]; over 75 µM in assay [3]; over 75 µM in assay [4]; over 75 µM in [5]; over 75 µM in [6]. The TGI in assay [7], in assay [8], in assay [9], in assay [10], in assay [11] and in [12] was over 75 µM each time. For the same compound, the TGI in assay [13], in assay [14], in [15], in assay [16], in assay [17] and in assay [18] was over 75 µM in each case. Also, in assay [19], the TGI was over 75 µM.

Take `CCN(C(=O)N[C@@H](CC(C)C)C(=O)NCC(=O)OC)c1ccccc1`: the TGI in assay [1], in assay [2], in assay [3], in assay [4], in assay [5] and in [6] was over 100 µM each time. The TGI in assay [7], in assay [8], in assay [9], in [10], in assay [11] and in assay [12] was over 100 µM in each case. Also, the TGI in assay [13], in [14], in assay [15], in [16], in assay [17] and in [18] was over 100 µM each time. Moreover, the TGI in assay [19] is over 100 µM.

With `O=c1c2sc3ccccc3sc=2c(=O)c2c(Cl)c(Cl)c(Cl)c(Cl)c12`, the TGI in assay [1], in assay [2], in assay [3], in assay [4], in [5] and in [6] was over 100 µM each time. For the same compound, the TGI in assay [7], in assay [8], in assay [9], in assay [10], in assay [11] and in assay [12] was over 100 µM each time. Moreover, the TGI in [13], in [14], in assay [15], in assay [16], in [17] and in assay [18] was over 100 µM in each case. In addition, the TGI in assay [19] was over 100 µM.

For the compound `Cc1nc2ccc(N=Nc3c(C)noc3C)cc2[nH]1`, the TGI in assay [1] is over 100 µM; in assay [2] it was 34.5 µM; in assay [3] it was over 100 µM; in assay [4], over 100 µM; in [5], 91.4 µM; in [6], over 100 µM. Further, the TGI is over 100 µM in assay [7]; over 100 µM in [8]; 84 µM in assay [9]; 96.6 µM in assay [10]; over 100 µM in assay [11]; over 100 µM in assay [12]. The TGI in [13] is over 100 µM; in assay [14], over 100 µM; in assay [15], 92.4 µM; in [16], 52.4 µM; in [17] it was over 100 µM; in [18], over 100 µM. In assay [19], this compound had a TGI of over 100 µM.

Consider `C[C@H]1CCC/C=C/[C@@H]2C[C@H](OC(=O)CN(C)C)C[C@H]2[C@H](O)/C=C/C(=O)O1`, for which the TGI in assay [1] was over 100 µM; in assay [2], 0.0997 µM; in assay [3], over 33.8 µM; in [4], 0.235 µM; in assay [5], 0.746 µM; in assay [6], over 100 µM. Also, the TGI in assay [7] was over 100 µM; in [8], over 19.9 µM; in [9], 4.31 µM; in [10], 0.0327 µM; in assay [11] it was over 100 µM; in [12] it was 4.05 µM. The TGI in assay [13] was 5.68 µM; in assay [14] it was 8.74 µM; in assay [15], over 26.6 µM; in [16], 0.155 µM; in [17], 6.45 µM; in assay [18], over 100 µM. Also, in assay [19], the TGI is over 100 µM.

Consider `CC1OC(OC2C(OC(=O)[C@]34CCC(C)(C)C[C@H]3C3=CC[C@@H]5[C@@]6(C)CC[C@H](OC7OC(CO)C(O)C(O)C7OC7OC(CO)C(O)C(O)C7O)C(C)(C)[C@@H]6CC[C@@]5(C)[C@]3(C)CC4)OCC(O)C2O)C(O)C(O)C1OC1OCC(O)C(O)C1O` (stereo partly specified), for which the TGI in assay [1] was found to be 24 µM; in [2], 3.28 µM; in assay [3], 24.8 µM; in [4] it was 4.79 µM; in assay [5], 44.8 µM; in assay [6], 30.8 µM. Moreover, the TGI was 27.6 µM in assay [7]; 16.7 µM in [8]; 29.3 µM in assay [9]; 22.2 µM in [10]; 7.34 µM in assay [11]; over 67.4 µM in assay [12]. Further, the TGI in assay [13] stood at 21.7 µM; in [14], 25.8 µM; in [15] it was 31.6 µM; in assay [16], 25.4 µM; in assay [17] it was 9.27 µM; in assay [18], 28.9 µM. In assay [19], this compound displayed a TGI of 29.2 µM.
